Laboratory results taken from article PMC10011573, “Development of novel broad-spectrum antimicrobial lipopeptides derived from plantaricin NC8 β” (Scientific Reports, 2023).
pEC50: −log10 of the molar value. Where two headings read alike, the source gives them in different places. Non-standard residues stand in square brackets, D forms with d. Residues, ends and D or L forms follow the SMILES beside them. No end group written: not given here. *: point of attachment. Pentadecanoyl = CCCCCCCCCCCCCCC(=O)*; Heptanoyl = CCCCCCC(=O)*; Hexanoyl = CCCCCC(=O)*

Experiments:
E. coli (K-12 MG1655) = tested on: E. coli (K-12 MG1655)
Description: (§1) S. aureus (ATCC 29213, MSSA, ATCC, Manassas, VA), E. coli (K-12 MG1655) and clinical isolates of S. aureus, E. coli, E. faecium, K. pneumoniae, A. baumannii, P. aeruginosa and E. cloacae obtained from the Department of Laboratory Medicine at Örebro University Hospital were streaked on Luria–Bertani (LB) agar plates and incubated at 37 °C overnight. Single colonies were inoculated into 5 ml of LB broth and incubated on a shaker (400 rpm) at 37 °C overnight. The bacterial concentrations were determined by viable count and were adjusted to correlate with approximately 10^9 CFU/ml.
(§2) The broth microdilution method was used to determine minimal inhibitory concentration (MIC) and minimal bactericidal concentration (MBC), in accordance with the EUCAST standards for the broth microdilution method. Two-fold serial dilutions of the lipopeptides were used, and the final concentrations ranged from 0.19 to 100 µM. In brief, two-fold serial dilutions of the lipopeptides were performed in a 96-well plate in PBS, with a final volume of 100 µl per well, after which 100 µl of LB-broth media containing approximately 5 × 10^5 CFU/ml of bacteria was added to each well. The plate was then incubated for 20 h in 37 °C on a shaker (400 rpm). The effect of lipopeptide-antibiotic combinations was investigated by performing checkerboard assays. The assays were performed in accordance with the MIC and MBC tests conducted above, but with horizontal and longitudinal two-fold serial dilutions of the tested compounds. […] The fractional inhibitory concentration (FIC) and fractional bactericidal concentration (FBC) were calculated by the equation (MIC or MBC of peptide in combination/MIC or MBC of peptide alone) + (MIC or MBC of antibiotic in combination/MIC or MBC of antibiotic alone). Synergy was defined as FIC/FBC ≤ 0.5, additive when 0.5 < FIC/FBC ≤ 1, indifferent when 1 < FIC/FBC < 2 and antagonistic when FIC/FBC ≥ 2. All experiments were repeated at least three times.

[1] = tested on: S. aureus (ATCC 29213, MSSA)
Description: as §1, §2

human erythrocytes = test: Hemolytic activity; type: cell-based; conditions: 15% suspension in PBS, 1 h, 37 °C, absorbance 540 nm, highest tested concentration 100 µM
Description: The hemolytic activity of the lipopeptides was investigated by collecting blood from healthy volunteers in heparinized vacutainers. Briefly, the blood was centrifuged at 600 × g for 5 min and the erythrocyte pellet was washed three times in PBS. The cells were then suspended in PBS and added to 96-well plates (15% erythrocyte suspension/well), containing the lipopeptides with two-fold serial dilution. The plates were incubated for 1 h at 37 °C followed by centrifugation for 5 min at 900×g and absorbance measurement of the supernatants at 540 nm. Hemolytic activity (%) was calculated by subtracting the negative control from all values and normalization against the positive control (0.5% Triton X-100), that was set to 100%. All experiments, each in duplicate, were repeated three times.

[2] = Carboxyfluorescein release assay, bacterial liposome model; type: biochemical; conditions: for pEC50: 75:25 POPC:POPG liposomes, 25 µM lipid, 10 mM PBS pH 7.4, 10^–5–10^2 µM peptide, 60 min, fluorescence, Hill fit, n = 3, read-out: EC50 Bacterial (concentration that triggers 50% CF release)
Description: (§3) Liposomes were prepared by thin-film hydration method. Lipids stock solutions (10 mg/ml in chloroform, Avanti Polar Lipids, Inc., Alabaster, United States) of the lipids 1-palmitoyl-2-oleoyl-sn-glycero-3-phosphocholine (POPC), 1-palmitoyl-2-oleoyl-sn-glycero-3-phospho-L-serine (POPS), 1-Hexadecanoyl-2-(9Z-Octadecenoyl)-sn-Glycero-3-Phosphoglycerol (POPG) and Cholesterol (Chol) were employed. Bacterial liposomes were prepared with a 75:25 ratio of POPC:POPG and mammalian liposomes were prepared with a 65:5:30 ratio of POPC:POPS:Chol. Lipid solutions were thoroughly homogenised, and the solvent was evaporated with the use of a dry N2 steam to yield a lipid cake. […] The lipid film was subsequently hydrated with a 5(6)-CF solution (50 mM CF, 10 mM PBS, 90 mM NaCl, pH 7.4). Following a 10 min incubation on orbital shaker (50 min^−1), the solution was vortexed for 60 s on medium speed. A mini extruder (Avanti Polar Lipids, Inc., United States) was employed and 21 extrusions were performed through a 0.1 µm filter membrane (Nuclepore track-etched hydrophilic membrane, Cytiva, Whatman, MA, United States), resulting in monodispersed unilamellar liposomes. Directly before use the liposomes were purified from unencapsulated CF by filtration through a gel filtration column (PD Minitrap G-25 column, Cytiva, United States), against PBS buffer (10 mM, pH 7.4).
(§4) Peptide and lipopeptide activity towards liposome models were evaluated using a carboxyfluorescein (CF) release assay. Liposomes were diluted in PBS (10 mM, pH 7.4) to a final lipid concentration of 25 µM and incubated with peptides (10^–5–10^2 µM) in a 96-well plate (n = 3). CF release was monitored using an Infinite M1000 PRO plate reader every 2.5 min for 1 h. Full (100%) CF release was obtained by addition of 1% Triton X-100 solution followed by 10 min incubation. CF release percentage was evaluated according to the formula 100 * (F − F0)/(FT − F0), where F indicates the instantaneous fluorescence, FT the total fluorescence and F0 the background fluorescence prior to peptide addition. Data were fitted to a Hill-1 curve using MATLAB R2019a (The MathWorks Inc., Natick, Massachusetts, United States) and the half maximum effective concentration (EC50) was extracted.

[3] = Carboxyfluorescein release assay, mammalian liposome model; type: biochemical; conditions: 65:5:30 POPC:POPS:Chol. liposomes, 25 µM lipid, 10 mM PBS pH 7.4, 10^–5–10^2 µM peptide, 60 min, fluorescence, Hill fit, n = 3; read-out: EC50 Mammalial (concentration that triggers 50% CF release)
Description: as §3, §4

S. aureus (ATCC 29213) = type: cell-based; conditions: Table 6; ATCC 29213; checkerboard assay, 50:50 PBS/LB-broth, 200 µL
Description: as §2, with “Two-fold serial dilutions of the lipopeptides were used, and the final concentrations ranged from 0.19 to 100 µM.” left out, “Synergy was defined as FIC/FBC ≤ 0.5, additive when 0.5 < FIC/FBC ≤ 1, indifferent when 1 < FIC/FBC < 2 and antagonistic when FIC/FBC ≥ 2.” left out

[4] = Table 3, K-12 MG1655, broth microdilution, 50:50 PBS/LB-broth, 200 µL, 20 h, 37 °C
[5] = Table 3, ATCC 29213, broth microdilution, 50:50 PBS/LB-broth, 200 µL, 20 h, 37 °C

E. coli MIC (E. coli (K-12 MG1655); [4]) [µM] | S. aureus MIC ([1]; ATCC 29213, 20 h) [µM] | pEC50 [2] | pEC50 [3] | Compound | E. coli MBC (E. coli (K-12 MG1655); [4]) [µM] | S. aureus MBC ([1]; ATCC 29213, 20 h) [µM] | HC, hemolytic concentration at 5% hemolytic activity (human erythrocytes) [µM] | further results
3.1 | 1.5 | 6.89 | 5.91 | CCCCCC(=O)N[C@H](CC(C)C)C(=O)NCC(=O)N[C@H](CC(C)C)C(=O)N[C@H](CCCCN)C(=O)N[C@H](CC(C)C)C(=O)N[C@H](CC(C)C)C(=O)N[C@H](Cc1c[nH]c2ccccc12)C(=O)N[C@H](CO)C(=O)N[C@H](C)C(=O)N[C@H](Cc1ccc(O)cc1)C(=O)N[C@H](CCCCN)C(=O)N[C@H](Cc1c[nH]cn1)C(=O)N[C@H](CCCNC(=N)N)C(=O)N[C@H](CCCCN)C(=O)N[C@@H](C(=O)N[C@H](CC(C)C)C(N)=O)[C@H](C)O [D-6-C6-Leu] (Hexanoyl-[dL]G[dL][dK][dL][dL][dW][dS][dA][dY][dK][dH][dR][dK][dT][dL]-NH2) | 3.1 | 1.5 | 65 | –
3.1 | 3.1 | 6.89 | 5.30 | CCCCCC(=O)N[C@H](CC(C)C)C(=O)NCC(=O)N[C@@H](C(=O)N[C@H](CCCCN)C(=O)N[C@@H](C(=O)N[C@H](CC(C)C)C(=O)N[C@H](Cc1c[nH]c2ccccc12)C(=O)N[C@H](CO)C(=O)N[C@H](C)C(=O)N[C@H](Cc1ccc(O)cc1)C(=O)N[C@H](CCCCN)C(=O)N[C@H](Cc1c[nH]cn1)C(=O)N[C@H](CCCNC(=N)N)C(=O)N[C@H](CCCCN)C(=O)N[C@@H](C(=O)N[C@@H](C(N)=O)[C@H](C)CC)[C@H](C)O)[C@H](C)CC)[C@H](C)CC [D-6-C6] (Hexanoyl-[dL]G[dI][dK][dI][dL][dW][dS][dA][dY][dK][dH][dR][dK][dT][dI]-NH2) | 3.1 | 3.1 | > 100 | –
3.1 | 1.5 | 6.89 | 5.99 | CCCCCCC(=O)N[C@H](CC(C)C)C(=O)NCC(=O)N[C@H](CC(C)C)C(=O)N[C@H](CCCCN)C(=O)N[C@H](CC(C)C)C(=O)N[C@H](CC(C)C)C(=O)N[C@H](Cc1c[nH]c2ccccc12)C(=O)N[C@H](CO)C(=O)N[C@H](C)C(=O)N[C@H](Cc1ccc(O)cc1)C(=O)N[C@H](CCCCN)C(=O)N[C@H](Cc1c[nH]cn1)C(=O)N[C@H](CCCNC(=N)N)C(=O)N[C@H](CCCCN)C(=O)N[C@@H](C(=O)N[C@H](CC(C)C)C(N)=O)[C@H](C)O [D-6-C7-Leu] (Heptanoyl-[dL]G[dL][dK][dL][dL][dW][dS][dA][dY][dK][dH][dR][dK][dT][dL]-NH2) | 3.1 | 1.5 | 35 | –
– | – | – | – | CN(C)[C@@H]1C(O)=C(C(N)=O)C(=O)[C@@]2(O)C(O)=C3C(=O)c4c(O)cccc4[C@@](C)(O)[C@H]3C[C@@H]12 [Tetracycline] | – | – | – | S. aureus MBC, antibiotic alone (S. aureus (ATCC 29213)): 8 µg/mL; S. aureus MIC, antibiotic alone (S. aureus (ATCC 29213)): 0.5 µg/mL
– | – | – | – | CN[C@H](CC(C)C)C(=O)N[C@H]1C(=O)N[C@@H](CC(N)=O)C(=O)N[C@H]2C(=O)N[C@H]3C(=O)N[C@H](C(=O)N[C@H](C(=O)O)c4cc(O)cc(O)c4-c4cc3ccc4O)[C@H](O)c3ccc(c(Cl)c3)Oc3cc2cc(c3O[C@@H]2O[C@H](CO)[C@@H](O)[C@H](O)[C@H]2O[C@H]2C[C@](C)(N)[C@H](O)[C@H](C)O2)Oc2ccc(cc2Cl)[C@H]1O [Vancomycin] | – | – | – | S. aureus MBC, antibiotic alone (S. aureus (ATCC 29213)): 0.78 µg/mL; S. aureus MIC, antibiotic alone (S. aureus (ATCC 29213)): 0.78 µg/mL

Compound | E. coli MIC (E. coli (K-12 MG1655); [4]) [µM] | S. aureus MIC ([1]; ATCC 29213, 20 h) [µM] | pEC50 [2] | pEC50 [3] | E. coli MBC (E. coli (K-12 MG1655); [4]) [µM] | S. aureus MBC ([1]; ATCC 29213, 20 h) [µM] | HC, hemolytic concentration at 5% hemolytic activity (human erythrocytes) [µM] | further results
CCCCCCCCCCCCCCC(=O)N[C@@H](CC(C)C)C(=O)NCC(=O)N[C@H](C(=O)N[C@@H](CCCCN)C(=O)N[C@H](C(=O)N[C@@H](CC(C)C)C(=O)N[C@@H](Cc1c[nH]c2ccccc12)C(=O)N[C@@H](CO)C(=O)N[C@@H](C)C(=O)N[C@@H](Cc1ccc(O)cc1)C(=O)N[C@@H](CCCCN)C(=O)N[C@@H](Cc1c[nH]cn1)C(=O)N[C@@H](CCCNC(=N)N)C(=O)N[C@@H](CCCCN)C(=O)N[C@H](C(=O)N[C@H](C(N)=O)[C@@H](C)CC)[C@@H](C)O)[C@@H](C)CC)[C@@H](C)CC [L-6-C15] (Pentadecanoyl-LGIKILWSAYKHRKTI-NH2) | – | > 100 | 4.71 | 6.06 | – | > 100 | – | E. coli MBC (E. coli (K-12 MG1655); K-12, 20 h): > 100 µM; E. coli MIC (E. coli (K-12 MG1655); K-12, 20 h): > 100 µM
SVPTSVYTLGIKILWSAYKHRKTIEKSFNKGFYH [PLNC8 β, reference compound] | – | – | 7.70 | 5.90 | > 100 | – | – | E. coli MIC (E. coli (K-12 MG1655); Table 2, K-12 MG1655, broth microdilution, 50:50 PBS/LB-broth, 200 µL, 20 h, 37 °C): > 100 µM; E. coli MBC (E. coli (K-12 MG1655); Table 2, K-12 MG1655, broth microdilution, 50:50 PBS/LB-broth, 20 h, 37 °C, 10 µl drops on LB-agar): > 100 µM; S. aureus MBC ([1]; Table 2, ATCC 29213, broth microdilution, 50:50 PBS/LB-broth, 20 h, 37 °C, 10 µl drops on LB-agar): > 100 µM; S. aureus MIC ([1]; Table 2, ATCC 29213, broth microdilution, peptide in PBS, bacteria in LB-broth, 200 µL, 50:50 PBS/broth, ~5 × 10^5 CFU/ml, 20 h, 37 °C, repeated at least three times): > 100 µM; S. aureus MBC [1, 5]: > 100 µM; S. aureus MIC [1, 5]: > 100 µM; CF release ([2]; bacterial-mimicking liposomes, peptide 100 pM, after 60 min of incubation): ~ 20%
